Assay [1] addresses T1, airway epithelial Na+ channels (Homo sapiens, UniProt P37088+P51168+P51170).
T1 construct: Cells from freshly excised specimens are protease isolated; endogenous in cells
T1 sequence (P37088 1-669): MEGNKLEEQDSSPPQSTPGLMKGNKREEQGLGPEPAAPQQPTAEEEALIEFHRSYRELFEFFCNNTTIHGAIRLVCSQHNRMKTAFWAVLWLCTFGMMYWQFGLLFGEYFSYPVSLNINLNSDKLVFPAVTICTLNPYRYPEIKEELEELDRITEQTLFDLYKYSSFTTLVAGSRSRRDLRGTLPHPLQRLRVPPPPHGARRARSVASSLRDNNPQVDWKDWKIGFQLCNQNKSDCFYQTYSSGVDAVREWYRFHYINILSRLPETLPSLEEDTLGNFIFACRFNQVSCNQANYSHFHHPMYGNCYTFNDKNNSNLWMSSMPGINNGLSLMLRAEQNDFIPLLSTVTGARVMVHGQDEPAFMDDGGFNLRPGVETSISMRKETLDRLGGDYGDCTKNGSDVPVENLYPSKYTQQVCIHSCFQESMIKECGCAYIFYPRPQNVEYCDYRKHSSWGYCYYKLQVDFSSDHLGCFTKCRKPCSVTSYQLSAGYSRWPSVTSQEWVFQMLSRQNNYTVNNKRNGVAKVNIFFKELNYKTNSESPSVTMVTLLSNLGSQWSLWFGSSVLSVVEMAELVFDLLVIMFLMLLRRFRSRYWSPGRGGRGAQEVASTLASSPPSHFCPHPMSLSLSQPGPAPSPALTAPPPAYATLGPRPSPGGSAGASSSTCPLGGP
T1 sequence (P51168 1-640): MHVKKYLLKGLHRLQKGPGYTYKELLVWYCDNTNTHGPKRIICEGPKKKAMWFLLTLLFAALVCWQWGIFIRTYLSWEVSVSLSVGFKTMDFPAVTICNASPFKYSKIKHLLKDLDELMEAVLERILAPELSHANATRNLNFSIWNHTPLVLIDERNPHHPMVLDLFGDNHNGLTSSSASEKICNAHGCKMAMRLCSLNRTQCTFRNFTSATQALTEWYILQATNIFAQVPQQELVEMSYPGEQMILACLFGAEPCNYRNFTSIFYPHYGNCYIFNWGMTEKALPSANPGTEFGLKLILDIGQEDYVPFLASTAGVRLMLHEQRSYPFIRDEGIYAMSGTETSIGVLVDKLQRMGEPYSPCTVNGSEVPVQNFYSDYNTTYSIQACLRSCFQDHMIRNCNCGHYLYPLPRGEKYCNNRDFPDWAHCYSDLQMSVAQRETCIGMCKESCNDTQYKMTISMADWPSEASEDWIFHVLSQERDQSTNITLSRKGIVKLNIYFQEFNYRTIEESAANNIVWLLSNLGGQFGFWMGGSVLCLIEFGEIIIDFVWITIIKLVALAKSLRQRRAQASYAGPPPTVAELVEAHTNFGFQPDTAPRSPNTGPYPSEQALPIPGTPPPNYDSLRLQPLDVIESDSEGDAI
T1 sequence (P51170 1-649): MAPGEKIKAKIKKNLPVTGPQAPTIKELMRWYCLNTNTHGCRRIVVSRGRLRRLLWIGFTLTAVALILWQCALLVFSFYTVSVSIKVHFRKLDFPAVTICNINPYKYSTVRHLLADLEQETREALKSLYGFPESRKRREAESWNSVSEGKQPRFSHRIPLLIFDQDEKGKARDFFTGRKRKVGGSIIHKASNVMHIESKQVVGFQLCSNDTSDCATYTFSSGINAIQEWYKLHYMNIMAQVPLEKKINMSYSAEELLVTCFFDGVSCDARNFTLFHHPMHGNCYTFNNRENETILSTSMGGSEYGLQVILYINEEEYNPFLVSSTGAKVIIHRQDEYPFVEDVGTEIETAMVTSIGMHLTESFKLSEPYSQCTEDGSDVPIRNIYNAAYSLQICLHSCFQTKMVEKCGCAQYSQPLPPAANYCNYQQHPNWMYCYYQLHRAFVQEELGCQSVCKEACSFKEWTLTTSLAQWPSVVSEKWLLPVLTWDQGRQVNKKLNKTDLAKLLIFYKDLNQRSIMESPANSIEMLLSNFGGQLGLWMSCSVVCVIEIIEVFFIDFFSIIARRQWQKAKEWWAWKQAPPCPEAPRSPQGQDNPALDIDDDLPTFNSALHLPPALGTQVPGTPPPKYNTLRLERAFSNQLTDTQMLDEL
Description: Short-circuit current (Isc) measurement of sodium transport in cultured human nasal epithelium, Ussing chamber. The format is cell-based. Particulars: for concentration achieving the same level of complete sodium channel blocking, less than amiloride: apical surface of human nasal epithelium, relative to amiloride. The method, then:
The cell culture procedures used in this example are performed as described in Willumsen, N. J., et al., Am. J. Physiol. 256:C1033-C1044 (Cell. Physiol. 25) (1989) and Yankaskas, J. R., et al., Am. Rev. Respir. Dis. 132:1281-1287 (1985). Cells from freshly excised specimens are protease isolated with protease XIV (Sigma, St, Louis, Mo.), concentrated,and plated on collagen membranes in the bottom of plastic-tissue culture cups. The cells are fed for 5 days with serum-free F-12 medium containing the following additives (F-12/7X): insulin, epidermal growth factor, cholera toxin, transferrin, hydrocortisone, triiodothyronine, and endothelial cell growth substance. Subsequently, they are fed with F-12/7X media supplemented (1:1) with 3T3 fibroblast-conditioned media containing 1% fetal bovine serum. After the fifth day in culture, the transepithelial potential difference (PD) developed by the culture is measured daily to detect the occurrence of confluency. Cell preparations are routinely studied within 1 day of the development of the maximal PD.
J. Physiol. (Cell Physiol. 25) 256:C1033-C1053 (1989).
The tissue preparation described in Example 1 is mounted in a modified (superfusion, not recirculating), miniature Ussing chamber interfaced to a voltage clamp that measures transepithelial PD and the PD response to constant current (I) pulses. The chamber contains 1 ml of bathing solution for each (apical; basolateral) surface of the preparation. The solution used as the vehicle for drug delivery is a Krebs bicarbonate Ringer solution (KBR) which approximates the ionic composition of plasma. This solution is warmed (37°) and gassed (95% oxygen, 5% CO2) to maintain pH 7.4. The cultured cells are superfused on both surfaces with KBR.
The measurement of sodium transport rates is performed by recording the spontaneous transepithelial PD (Vt) and responses of the PD to constant current pulses. From the relationship between Vt and induced Vt deflections, the transepithelial resistance (Rt) is calculated. The short-circuit current (Isc), or measure of sodium transport rate, is determined as Isc =Vt /Rt.
Each cultured human airway epithelial preparation is exposed to different concentrations (10^-8 M-10^-3 M) of a sodium-channel blocking drug on either the basolateral or apical surface for the dose response studies. To construct concentration-effect relationships of the response to the drugs, it was assumed that the same maximum response to a drug could be induced from each tissue culture preparation from the same individual.

The target in assay [2] is T1, airway epithelial Na+ channels. In words: Persistence of Na+ absorption blockade after washout of drug, Ussing chamber. Conditions: 10^-5 M for 5 minutes to the luminal surface, then KBR perfusion; time for Isc to return to basal. The format is cell-based. The text has this:
In vivo, drug is delivered to the lungs as a single bolus. […] This Example illustrates the contribution of binding of drug to the target site (2) to the duration of drug action.
A protocol was designed to measure the duration of drug action after removal of drug from the airway surface liquid compartment. For this protocol, human airway epithelial preparations as described in Example 1 are mounted in modified Ussing chambers and interfaced to voltage clamps as described above in Example 2. Basal measurements of Isc in KBR are made and the steady state response to a 5 minute administration of a single maximal effective concentration (10^-5 M) of drug delivered to the luminal surface is measured. Following this step, administration of the drug is stopped, the lumen is perfused with standard KBR solutions, and the time required for Isc to return to baseline or basal levels is measured.

For the compound `N=C(N)NC(=O)c1nc(Cl)c(N)nc1N` [amiloride], in assay [1] (steady-state inhibition of Na+ transport, human nasal epithelia), the “potency as blocker of apical Na+ channels (in words)” value is recorded as “significantly less potent than benzamil or phenamil”.

As for `NC(=NCc1ccccc1)NC(=O)c1nc(Cl)c(N)nc1N` [benzamil, 3,5-diamino-6-chloro-N-(benzylaminoaminomethylene)pyrazinecarboxamide], in assay [1], the “concentration achieving the same level of complete sodium channel blocking, less than amiloride” value was “approximately one” and the “potency compared to amiloride (more potent by)” value is on record as 1-1.5 log-concentration units. The “duration of activity after washout compared to amiloride” value in assay [2] is recorded as “almost twice as long as amiloride”.

For the compound `NC(=Nc1ccccc1)NC(=O)c1nc(Cl)c(N)nc1N` [phenamil, 3,5-diamino-6-chloro-N-(phenylaminoaminomethylene)pyrazinecarboxamide], in assay [1], the “concentration achieving the same level of complete sodium channel blocking, less than amiloride” value was “approximately one” and the “potency compared to amiloride (more potent by)” value is on record as 1-1.5 log-concentration units. Further, the “duration of activity after washout compared to amiloride” value in assay [2] was “almost twice as long as amiloride”.

The values above are taken from patent US5656256A (The University of North Carolina at Chapel Hill, priority 1994, dated 1997).
